# Experimental data from the supplement of paper PMC10307832.
# Tests used:
# Assay in all cases: relative viability (nuclei count vs DMSO), 5 days (fraction); higher = more cells survive
# A-427 = test system: A-427
# Outline: (§1)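 Lung cancer cell lines in 1536-well plates were dosed by pin tool the day after seeding, either with one drug alone or with a fixed anchor-drug dose plus five library-drug doses (not always all listed) in √10 steps. After 5 days, cells were fixed and their nuclei stained in one step (final 0.05% Triton X-100, 1% formaldehyde, 1 ug/ml Hoechst), then counted on 4× images. Relative viability is the nuclei count in treated wells divided by that in vehicle wells. Values are medians of duplicate plates.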
# COR-L23 = test system: COR-L23
# Outline: as §1
# ChaGo-K-1 = test system: ChaGo-K-1
# Outline: as §1
# EMC-BAC-2 = test system: EMC-BAC-2
# Outline: as §1
# HARA = test system: HARA
# Outline: as §1
# HCC-15 = test system: HCC-15
# Outline: as §1
# HCC-366 = test system: HCC-366
# Outline: as §1
# HCC-78 = test system: HCC-78
# Outline: as §1
# LC-2-ad = test system: LC-2-ad
# Outline: as §1
# LK-2 = test system: LK-2
# Outline: as §1
# NCI-H1650 = test system: NCI-H1650
# Outline: as §1
# NCI-H1734 = test system: NCI-H1734
# Outline: as §1
# NCI-H1793 = test system: NCI-H1793
# Outline: as §1
# NCI-H1944 = test system: NCI-H1944
# Outline: as §1
# NCI-H1993 = test system: NCI-H1993
# Outline: as §1
# NCI-H2009 = test system: NCI-H2009
# Outline: as §1
# NCI-H2023 = test system: NCI-H2023
# Outline: as §1
# NCI-H2228 = test system: NCI-H2228
# Outline: as §1
# NCI-H23 = test system: NCI-H23
# Outline: as §1
# NCI-H2405 = test system: NCI-H2405
# Outline: as §1
# NCI-H838 = test system: NCI-H838
# Outline: as §1
# SK-LU-1 = test system: SK-LU-1
# Outline: as §1
# UMC-11 = test system: UMC-11
# Outline: as §1
compound,measurement,setting,value
C[C@@H]1CN(CC(=O)Nc2ccc3c(c2)Cc2cccc(-c4cc(=O)cc(N5CCOCC5)o4)c2S3)C[C@H](C)O1 + Nc1nc2[nH]cc(CCc3ccc(C(=O)N[C@@H](CCC(=O)O)C(=O)O)cc3)c2c(=O)[nH]1 [Pemetrexed] (partner 0.2 µM),relative viability,A-427; first compound 0.04 µM,1.05
same,relative viability,A-427; first compound 0.1265 µM,1.04
same,relative viability,A-427; first compound 0.4 µM,1.02
same,relative viability,A-427; first compound 4 µM,0.921
same,relative viability,COR-L23; first compound 0.04 µM,0.189
same,relative viability,COR-L23; first compound 0.1265 µM,0.204
same,relative viability,COR-L23; first compound 0.4 µM,0.203
same,relative viability,COR-L23; first compound 4 µM,0.206
same,relative viability,ChaGo-K-1; first compound 0.04 µM,0.24
same,relative viability,ChaGo-K-1; first compound 0.1265 µM,0.245
same,relative viability,ChaGo-K-1; first compound 0.4 µM,0.252
same,relative viability,ChaGo-K-1; first compound 4 µM,0.226
same,relative viability,EMC-BAC-2; first compound 0.04 µM,0.417
same,relative viability,EMC-BAC-2; first compound 0.1265 µM,0.439
same,relative viability,EMC-BAC-2; first compound 0.4 µM,0.458
same,relative viability,EMC-BAC-2; first compound 4 µM,0.459
same,relative viability,HARA; first compound 0.04 µM,0.287
same,relative viability,HARA; first compound 0.1265 µM,0.24
same,relative viability,HARA; first compound 0.4 µM,0.192
same,relative viability,HARA; first compound 4 µM,0.214
same,relative viability,HCC-15; first compound 0.04 µM,0.212
same,relative viability,HCC-15; first compound 0.1265 µM,0.203
same,relative viability,HCC-15; first compound 0.4 µM,0.224
same,relative viability,HCC-15; first compound 4 µM,0.212
same,relative viability,HCC-366; first compound 0.04 µM,0.151
same,relative viability,HCC-366; first compound 0.1265 µM,0.162
same,relative viability,HCC-366; first compound 0.4 µM,0.212
same,relative viability,HCC-366; first compound 4 µM,0.152
same,relative viability,HCC-78; first compound 0.04 µM,0.809
same,relative viability,HCC-78; first compound 0.1265 µM,0.84
same,relative viability,HCC-78; first compound 0.4 µM,0.889
same,relative viability,HCC-78; first compound 4 µM,0.917
same,relative viability,LC-2-ad; first compound 0.04 µM,0.272
same,relative viability,LC-2-ad; first compound 0.1265 µM,0.248
same,relative viability,LC-2-ad; first compound 0.4 µM,0.291
same,relative viability,LC-2-ad; first compound 4 µM,0.249
same,relative viability,LK-2; first compound 0.04 µM,0.218
same,relative viability,LK-2; first compound 0.1265 µM,0.288
same,relative viability,LK-2; first compound 0.4 µM,0.237
same,relative viability,LK-2; first compound 4 µM,0.217
same,relative viability,NCI-H1650; first compound 0.04 µM,0.367
same,relative viability,NCI-H1650; first compound 0.1265 µM,0.353
same,relative viability,NCI-H1650; first compound 0.4 µM,0.408
same,relative viability,NCI-H1650; first compound 4 µM,0.329
same,relative viability,NCI-H1734; first compound 0.04 µM,0.424
same,relative viability,NCI-H1734; first compound 0.1265 µM,0.405
same,relative viability,NCI-H1734; first compound 0.4 µM,0.386
same,relative viability,NCI-H1734; first compound 4 µM,0.398
same,relative viability,NCI-H1793; first compound 0.04 µM,0.98
same,relative viability,NCI-H1793; first compound 0.1265 µM,0.752
same,relative viability,NCI-H1793; first compound 0.4 µM,0.855
same,relative viability,NCI-H1793; first compound 4 µM,0.485
same,relative viability,NCI-H1944; first compound 0.1265 µM,0.819
same,relative viability,NCI-H1944; first compound 0.4 µM,0.642
same,relative viability,NCI-H1944; first compound 4 µM,0.616
same,relative viability,NCI-H1993; first compound 0.04 µM,0.63
same,relative viability,NCI-H1993; first compound 0.1265 µM,0.587
same,relative viability,NCI-H1993; first compound 0.4 µM,0.542
same,relative viability,NCI-H1993; first compound 4 µM,0.578
same,relative viability,NCI-H2009; first compound 0.04 µM,1.06
same,relative viability,NCI-H2009; first compound 0.1265 µM,0.968
same,relative viability,NCI-H2009; first compound 0.4 µM,1.05
same,relative viability,NCI-H2009; first compound 4 µM,0.849
same,relative viability,NCI-H2023; first compound 0.04 µM,0.263
same,relative viability,NCI-H2023; first compound 0.1265 µM,0.213
same,relative viability,NCI-H2023; first compound 0.4 µM,0.203
same,relative viability,NCI-H2023; first compound 4 µM,0.199
same,relative viability,NCI-H2228; first compound 0.04 µM,0.333
same,relative viability,NCI-H2228; first compound 0.1265 µM,0.351
same,relative viability,NCI-H2228; first compound 0.4 µM,0.34
same,relative viability,NCI-H2228; first compound 4 µM,0.226
same,relative viability,NCI-H23; first compound 0.04 µM,0.685
same,relative viability,NCI-H23; first compound 0.1265 µM,0.696
same,relative viability,NCI-H23; first compound 0.4 µM,0.617
same,relative viability,NCI-H23; first compound 4 µM,0.521
same,relative viability,NCI-H2405; first compound 0.04 µM,1.11
same,relative viability,NCI-H2405; first compound 0.1265 µM,1.01
same,relative viability,NCI-H2405; first compound 0.4 µM,1.04
same,relative viability,NCI-H2405; first compound 4 µM,1.03
same,relative viability,NCI-H838; first compound 0.04 µM,0.262
same,relative viability,NCI-H838; first compound 0.1265 µM,0.244
same,relative viability,NCI-H838; first compound 0.4 µM,0.243
same,relative viability,NCI-H838; first compound 4 µM,0.236
same,relative viability,SK-LU-1; first compound 0.04 µM,1.08
same,relative viability,SK-LU-1; first compound 0.1265 µM,0.933
same,relative viability,SK-LU-1; first compound 0.4 µM,1.01
same,relative viability,SK-LU-1; first compound 4 µM,0.756
same,relative viability,UMC-11; first compound 0.04 µM,0.757
same,relative viability,UMC-11; first compound 0.1265 µM,0.764
same,relative viability,UMC-11; first compound 0.4 µM,0.767
same,relative viability,UMC-11; first compound 4 µM,0.674
